Data published in patent US20240109865A1, “INDAZOLE COMPOUNDS AS KINASE INHIBITORS” (TYRA BIOSCIENCES, INC., priority 2020, published 2024).
Structures can show the parent of a compound that is named as a salt.

What was measured:
[1] = system: UM-UC-14 cells (FGFR3(S249C)); assay: UM-UC-14 cancer cell line cell viability assay (CellTiter-Glo 2.0); format: cell-based; conditions: UMUC14, 72 hours, Cell Titer Glo 2.0
Text: (§1) Experimental Purpose: To detect the change of intracellular ATP by Cell Titer-Glo® and to evaluate the inhibitory effect of the compounds on cancer cell lines by determining the in vitro IC50 value of the compounds.
(§2) Cell Titer-Glo® 2.0 Luminescent cell viability assay reagent was purchased from Promega (Madison, WI). RT112/84 and KG-1 cell lines were purchased from American Type Culture Collection (Manassas, VA). UM-UC-14 cell line was purchased from Sigma (St. Louis, MO). RT112/84, UM-UC-14, and KG-1 cells were cultured in RPMI1640 media supplemented with 10% fetal bovine serum. Cultures were maintained at 37° C. in a humidified atmosphere of 5% C02 and 95% air.
(§3) Cell Viability Assay Procedure: Cells were plated in 96-well clear bottom/white plates (Corning #3903) at 10,000 cells/well in 100 μl of media, incubated overnight. The next day, test compound DMSO stock solutions were made at 10 mM and 2 μM final concentration. Compounds were then added to cells in a 9-dose, 10-fold dilution series starting at 30 μM with an HP 300e Digital Dispenser (each dose was applied in triplicate). DMSO was backfilled to each well up to 301 nL total volume of test compound+DMSO, and a total of 301 nL DMSO was added to a control/no test compound well in triplicate. The cells in cell culture plates were incubated with the compounds at 37° C. and 5% C02 for 72 hours. Then 50 μl of Cell Titer Glo 2.0 reagent was added to each well of the cell culture plates. The contents were covered from light and mixed on an orbital shaker at room temperature for 10 min. Luminescence was recorded by a Synergy H1 Microplate Reader (Biotek, Winooski, VT). Cells were assessed as a percentage of DMSO only treated control cells. Curves were plotted and IC50 values were calculated using the GraphPad Prism 8 program based on a sigmoidal dose-response equation (4 parameter).

[2] = biological target: FGFR3-BAIAP2L1 Ba/F3 cells (Homo sapiens, UniProt P22607); assay: Ba/F3 cell viability assay (CellTiter-Glo 2.0), FGFR3-BAIAP2L1 Ba/F3; format: cell-based; conditions: for Ba/F3 FGFR1/FGFR3 Selectivity: FGFR3 > FGFR1 selectivity ratio in Ba/F3 FGFR fusion cell based assays; for IC50: read-out: Ba/F3 Cells FGFR3 (IC50 nM), FGFR3-BAIAP2L1 Ba/F3 cells, 48 hours, Cell Titer Glo 2.0
In short: (§4)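 IL3-independent Ba/F3 lines driven by FGFR1-BCR or FGFR3-BAIAP2L1 fusions, in RPMI1640/10% FBS. 9-dose 10-fold series from 30 μM, triplicate, 48 h at 37 °C; viability by CellTiter-Glo 2.0 ATP luminescence relative to DMSO control, IC50 from 4-parameter sigmoidal fit.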

FGFR4 = FGFR4 (Homo sapiens (Human), UniProt P22455); assay: Kinase assay, binding constants (Kd), kinase-tagged T7 phage, qPCR
In short: (§5)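 Competition binding: T7 phage-tagged kinase + biotin-ligand beads + compound (11 pts, 3-fold, 0.9% DMSO). Elution 30 min RT with free ligand; qPCR quantitation. Kd via Hill fit, slope −1.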

FGFR2 = FGFR2 (Homo sapiens (Human), UniProt P21802); assay: as above
In short: as §5

FGFR3 (V555M) = FGFR3 (V555M) (Homo sapiens (Human), UniProt P22607, V555M); assay: as above; conditions: V555M mutant
In short: as §5

FGFR1 = FGFR1 (Homo sapiens (Human), UniProt P11362); assay: as above
In short: as §5

FGFR3 = FGFR3 (Homo sapiens (Human), UniProt P22607); assay: as above
In short: as §5

[3] = system: KG-1 cells (FGFR1-fusion); assay: KG-1 cancer cell line cell viability assay (CellTiter-Glo 2.0); format: cell-based; conditions: Homo sapiens, 72 hours, Cell Titer Glo 2.0
Text: as §1, §2, §3

FGFR1-BCR Ba/F3 cells = FGFR1-BCR Ba/F3 cells (Homo sapiens, UniProt P11362); assay: Ba/F3 cell viability assay (CellTiter-Glo 2.0), FGFR1-BCR Ba/F3; format: cell-based; conditions: read-out: Ba/F3 Cells FGFR1 (IC50 nM), 48 hours, Cell Titer Glo 2.0
In short: as §4

[4] = system: RT112/84 cells (FGFR3-fusion); assay: RT112/84 cancer cell line cell viability assay (CellTiter-Glo 2.0); format: cell-based; conditions: Homo sapiens, 72 hours, Cell Titer Glo 2.0
In short: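 RT112/84, UM-UC-14 and KG-1 cells (10,000/well, RPMI1640 with 10% FBS) were treated with a 9-dose, 10-fold series starting at 30 μM, in triplicate, for 72 h at 37 °C. ATP was read by CellTiter-Glo 2.0 luminescence relative to DMSO controls, and IC50 was fitted with a 4-parameter sigmoidal model.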

Sequence of FGFR2 (P21802 22-821): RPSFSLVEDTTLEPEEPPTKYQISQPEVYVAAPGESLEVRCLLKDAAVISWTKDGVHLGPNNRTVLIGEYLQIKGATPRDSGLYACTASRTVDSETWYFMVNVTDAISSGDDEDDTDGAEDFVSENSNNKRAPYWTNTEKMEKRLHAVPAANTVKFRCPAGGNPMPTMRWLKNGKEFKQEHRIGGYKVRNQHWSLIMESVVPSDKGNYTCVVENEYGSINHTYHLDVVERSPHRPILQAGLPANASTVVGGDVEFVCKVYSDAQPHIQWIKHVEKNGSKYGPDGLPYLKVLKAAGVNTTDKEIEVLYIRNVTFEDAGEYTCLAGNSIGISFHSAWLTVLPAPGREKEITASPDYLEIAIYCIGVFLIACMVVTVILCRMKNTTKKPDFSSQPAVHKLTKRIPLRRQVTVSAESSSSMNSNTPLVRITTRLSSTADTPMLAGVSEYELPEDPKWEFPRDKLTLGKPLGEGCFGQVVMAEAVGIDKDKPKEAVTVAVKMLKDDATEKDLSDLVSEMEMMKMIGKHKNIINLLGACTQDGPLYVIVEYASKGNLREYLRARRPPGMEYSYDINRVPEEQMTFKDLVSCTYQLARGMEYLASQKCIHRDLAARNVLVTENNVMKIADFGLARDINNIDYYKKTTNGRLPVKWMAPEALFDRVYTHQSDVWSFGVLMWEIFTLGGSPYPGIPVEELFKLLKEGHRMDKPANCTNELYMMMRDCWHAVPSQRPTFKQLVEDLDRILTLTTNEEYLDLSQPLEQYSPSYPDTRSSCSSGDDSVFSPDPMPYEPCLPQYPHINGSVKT
Sequence of FGFR4 (P22455 22-802): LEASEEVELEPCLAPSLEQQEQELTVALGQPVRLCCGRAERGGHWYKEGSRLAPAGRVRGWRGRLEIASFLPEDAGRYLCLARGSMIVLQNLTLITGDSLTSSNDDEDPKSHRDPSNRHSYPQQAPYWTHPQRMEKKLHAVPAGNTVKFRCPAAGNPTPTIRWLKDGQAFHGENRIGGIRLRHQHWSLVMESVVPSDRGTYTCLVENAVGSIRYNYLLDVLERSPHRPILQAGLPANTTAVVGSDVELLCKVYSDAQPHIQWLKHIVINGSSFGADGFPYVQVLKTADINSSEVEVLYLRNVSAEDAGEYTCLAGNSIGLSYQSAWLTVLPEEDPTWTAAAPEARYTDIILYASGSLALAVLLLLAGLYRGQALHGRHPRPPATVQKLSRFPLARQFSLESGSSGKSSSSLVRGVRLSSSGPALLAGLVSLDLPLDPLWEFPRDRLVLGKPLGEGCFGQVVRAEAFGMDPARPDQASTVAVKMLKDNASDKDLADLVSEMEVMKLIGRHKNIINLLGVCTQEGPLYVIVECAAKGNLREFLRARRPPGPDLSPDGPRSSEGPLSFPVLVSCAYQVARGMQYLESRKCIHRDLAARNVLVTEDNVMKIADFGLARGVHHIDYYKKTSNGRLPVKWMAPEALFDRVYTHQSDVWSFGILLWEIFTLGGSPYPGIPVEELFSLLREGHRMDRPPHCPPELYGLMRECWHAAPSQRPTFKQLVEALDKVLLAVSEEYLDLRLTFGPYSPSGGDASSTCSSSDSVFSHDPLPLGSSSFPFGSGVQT
Sequence of FGFR3 (V555M) (P22607 23-806 V555M): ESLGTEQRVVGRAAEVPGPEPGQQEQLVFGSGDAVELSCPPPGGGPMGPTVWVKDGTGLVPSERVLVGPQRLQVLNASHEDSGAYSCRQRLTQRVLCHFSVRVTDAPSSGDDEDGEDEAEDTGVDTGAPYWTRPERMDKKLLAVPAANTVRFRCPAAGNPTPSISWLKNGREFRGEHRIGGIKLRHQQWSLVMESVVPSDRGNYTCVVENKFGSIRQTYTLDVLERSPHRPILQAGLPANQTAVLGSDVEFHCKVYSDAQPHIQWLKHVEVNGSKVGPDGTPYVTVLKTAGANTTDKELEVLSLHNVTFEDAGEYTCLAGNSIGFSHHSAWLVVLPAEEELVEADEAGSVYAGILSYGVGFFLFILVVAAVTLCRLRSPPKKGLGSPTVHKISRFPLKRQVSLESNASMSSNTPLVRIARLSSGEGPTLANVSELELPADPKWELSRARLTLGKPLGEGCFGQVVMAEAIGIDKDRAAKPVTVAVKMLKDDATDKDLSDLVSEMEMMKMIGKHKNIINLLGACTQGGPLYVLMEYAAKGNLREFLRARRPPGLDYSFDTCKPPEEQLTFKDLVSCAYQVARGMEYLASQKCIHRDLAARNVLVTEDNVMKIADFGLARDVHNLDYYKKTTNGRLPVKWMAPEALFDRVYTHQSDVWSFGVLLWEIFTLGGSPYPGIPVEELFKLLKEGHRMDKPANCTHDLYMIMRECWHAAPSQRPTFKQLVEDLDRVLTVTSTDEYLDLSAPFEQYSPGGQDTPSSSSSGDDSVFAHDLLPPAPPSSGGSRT
Sequence of FGFR3-BAIAP2L1 Ba/F3 cells (P22607 23-806 limits assumed, change not shown): as the sequence (P22607 23-806 V555M) above, with M533V counted along it
Sequence of FGFR3 (P22607 23-806): as the sequence (P22607 23-806 V555M) above, with M533V counted along it
Sequence of FGFR1-BCR Ba/F3 cells (P11362 22-822 limits assumed, change not shown): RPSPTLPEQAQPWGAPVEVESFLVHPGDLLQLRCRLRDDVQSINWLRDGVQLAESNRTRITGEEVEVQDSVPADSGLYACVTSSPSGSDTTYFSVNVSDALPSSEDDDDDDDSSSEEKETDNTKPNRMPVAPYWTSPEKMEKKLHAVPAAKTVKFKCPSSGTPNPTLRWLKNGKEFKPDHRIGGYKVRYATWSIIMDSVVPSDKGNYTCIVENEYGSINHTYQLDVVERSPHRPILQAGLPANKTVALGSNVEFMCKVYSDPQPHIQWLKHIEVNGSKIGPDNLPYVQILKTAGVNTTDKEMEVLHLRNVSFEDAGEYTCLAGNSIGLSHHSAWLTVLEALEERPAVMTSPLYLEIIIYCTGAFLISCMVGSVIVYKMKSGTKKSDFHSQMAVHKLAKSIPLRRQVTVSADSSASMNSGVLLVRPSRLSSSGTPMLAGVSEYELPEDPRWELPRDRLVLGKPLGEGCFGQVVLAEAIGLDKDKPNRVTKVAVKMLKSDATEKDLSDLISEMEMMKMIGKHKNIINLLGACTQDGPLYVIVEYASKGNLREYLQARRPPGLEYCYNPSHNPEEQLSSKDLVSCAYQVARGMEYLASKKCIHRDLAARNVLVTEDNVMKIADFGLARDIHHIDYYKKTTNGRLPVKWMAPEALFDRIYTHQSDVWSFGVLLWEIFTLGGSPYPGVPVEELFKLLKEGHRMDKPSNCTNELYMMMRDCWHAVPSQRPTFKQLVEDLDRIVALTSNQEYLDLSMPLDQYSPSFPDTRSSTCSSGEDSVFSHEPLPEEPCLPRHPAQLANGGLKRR
Sequence of FGFR1 (P11362 22-822): as the sequence (P11362 22-822 limits assumed, change not shown) above

C[C@@H](Oc1ccc2[nH]nc(-c3ccc(N4CCS(=O)(=O)CC4)nc3)c2c1)c1c(Cl)cncc1Cl [Example 1, 4-[5-[5-[(1R)-1-(3,5-dichloro-4-pyridyl)ethoxy]-1H-indazol-3-yl]-2-pyridyl]-1,4-thiazinane 1,1-dioxide]
IC50 [1]: 1 to 20 nM
Ba/F3 FGFR1/FGFR3 Selectivity [2]: 33
IC50 [2]: 1 to 20 nM
Kd (FGFR4): 1 to 20 nM
Kd (FGFR2): 1 to 20 nM
Kd (FGFR3 (V555M)): 1 to 20 nM
Kd (FGFR1): 1 to 20 nM
Kd (FGFR3): 1 to 20 nM
IC50 [3]: 100 to 300 nM
IC50 (FGFR1-BCR Ba/F3 cells): 100 to 300 nM
IC50 [4]: 1 to 20 nM

C[C@@H](Oc1ccc2[nH]nc(-c3ccc(N4CCNCC4)nc3)c2c1)c1c(Cl)cncc1Cl [Example 2, (R)-5-(1-(3,5-Dichloropyridin-4-yl)ethoxy)-3-(6-(piperazin-1-yl)pyridin-3-yl)-1H-indazole dihydrochloride]
IC50 [1]: 1 to 20 nM
Ba/F3 FGFR1/FGFR3 Selectivity [2]: 15
IC50 [2]: 1 to 20 nM
Kd (FGFR4): 1 to 20 nM
Kd (FGFR2): 1 to 20 nM
Kd (FGFR3 (V555M)): 1 to 20 nM
Kd (FGFR1): 1 to 20 nM
Kd (FGFR3): 1 to 20 nM
IC50 (FGFR1-BCR Ba/F3 cells): 100 to 300 nM

C[C@@H](Oc1ccc2[nH]nc(-c3ccc(N4CCN(C(=O)N5CCOCC5)CC4)nc3)c2c1)c1c(Cl)cncc1Cl [Example 3, [4-[5-[5-[(1R)-1-(3,5-dichloro-4-pyridyl)ethoxy]-1H-indazol-3-yl]-2-pyridyl]piperazin-1-yl]-morpholino-methanone]
IC50 [1]: 1 to 20 nM
Ba/F3 FGFR1/FGFR3 Selectivity [2]: 18
IC50 [2]: 1 to 20 nM
Kd (FGFR4): 1 to 20 nM
Kd (FGFR2): 1 to 20 nM
Kd (FGFR3 (V555M)): 1 to 20 nM
Kd (FGFR1): 1 to 20 nM
Kd (FGFR3): 1 to 20 nM
IC50 [3]: 20 to 100 nM
IC50 (FGFR1-BCR Ba/F3 cells): 20 to 100 nM
IC50 [4]: 1 to 20 nM

C[C@@H](Oc1ccc2[nH]nc(-c3ccc(N4CCN(C(=O)N5CCN(C)CC5)CC4)nc3)c2c1)c1c(Cl)cncc1Cl [Example 4, [4-[5-[5-[(1R)-1-(3,5-dichloro-4-pyridyl)ethoxy]-1H-indazol-3-yl]-2-pyridyl]piperazin-1-yl]-(4-methylpiperazin-1-yl)methanone]
IC50 [1]: 1 to 20 nM
Ba/F3 FGFR1/FGFR3 Selectivity [2]: 29
IC50 [2]: 1 to 20 nM
Kd (FGFR4): 1 to 20 nM
Kd (FGFR2): 1 to 20 nM
Kd (FGFR3 (V555M)): 1 to 20 nM
Kd (FGFR1): 1 to 20 nM
Kd (FGFR3): 1 to 20 nM
IC50 [3]: 20 to 100 nM
IC50 (FGFR1-BCR Ba/F3 cells): 100 to 300 nM
IC50 [4]: 1 to 20 nM

COC(=O)N1CCC2(CC1)CN(c1ccc(-c3n[nH]c4ccc(O[C@H](C)c5c(Cl)cncc5Cl)cc34)cn1)C2 [Example 125, methyl 2-[5-[5-[(1R)-1-(3,5-dichloro-4-pyridyl)ethoxy]-1H-indazol-3-yl]-2-pyridyl]-2,7-diazaspiro[3.5]nonane-7-carboxylate]
Ba/F3 FGFR1/FGFR3 Selectivity [2]: 16
IC50 [2]: 1 to 20 nM
Kd (FGFR4): 1 to 20 nM
Kd (FGFR2): 20 to 100 nM
Kd (FGFR3 (V555M)): 1 to 20 nM
Kd (FGFR1): 20 to 100 nM
Kd (FGFR3): 1 to 20 nM
IC50 [3]: 100 to 300 nM
IC50 (FGFR1-BCR Ba/F3 cells): 100 to 300 nM
IC50 [4]: 1 to 20 nM

C[C@@H](Oc1ccc2[nH]nc(-c3cnc(N4CCC5(CCS(=O)(=O)C5)C4)nc3)c2c1)c1c(Cl)cncc1Cl (stereo partly drawn) [Example 127, 7-[5-[5-[(1R)-1-(3,5-dichloro-4-pyridyl)ethoxy]-1H-indazol-3-yl]pyrimidin-2-yl]-2λ^6-thia-7-azaspiro[4.4]nonane 2,2-dioxide]
Ba/F3 FGFR1/FGFR3 Selectivity [2]: 11
IC50 [2]: 1 to 20 nM
Kd (FGFR4): 1 to 20 nM
Kd (FGFR2): 20 to 100 nM
Kd (FGFR3 (V555M)): 1 to 20 nM
Kd (FGFR1): 20 to 100 nM
Kd (FGFR3): 1 to 20 nM
IC50 [3]: 100 to 300 nM
IC50 (FGFR1-BCR Ba/F3 cells): 100 to 300 nM
IC50 [4]: 20 to 100 nM

C[C@@H](Oc1ccc2[nH]nc(-c3cnc(N4CC5(CCN(S(C)(=O)=O)C5)C4)nc3)c2c1)c1c(Cl)cncc1Cl [Example 157, 5-[(1R)-1-(3,5-dichloro-4-pyridyl)ethoxy]-3-[2-(7-methylsulfonyl-2,7-diazaspiro[3.4]octan-2-yl)pyrimidin-5-yl]-1H-indazole]
IC50 [1]: 100 to 300 nM
Ba/F3 FGFR1/FGFR3 Selectivity [2]: 7
IC50 [2]: 1 to 20 nM
Kd (FGFR4): 1 to 20 nM
Kd (FGFR2): 20 to 100 nM
Kd (FGFR3 (V555M)): 1 to 20 nM
Kd (FGFR1): 20 to 100 nM
Kd (FGFR3): 1 to 20 nM
IC50 (FGFR1-BCR Ba/F3 cells): 100 to 300 nM
IC50 [4]: 20 to 100 nM
